Assay results taken from article PMC11842588, “A first-in-class selective inhibitor of ERK1/2 and ERK5 overcomes drug resistance with a single-molecule strategy” (Signal Transduction and Targeted Therapy, 2025).

Key:
MDA-MB-231 xenograft = MDA-MB-231 xenograft tumor growth inhibition; format: in vivo, nude mice (BALB/c-nu); settings: 50 mg/kg (each drug), intragastric once daily, 16 days, by tumor weight
Protocol: All procedures were performed in accordance with the Laboratory Animals Welfare Act, the Guide for the Care and Use of Laboratory Animals and the Guidelines and Policies. The rodent experiment was approved by IACUC (Institutional Animal Care and Use Committee) in the Experimental Animal Ethics Committee of West China Hospital (Approval No. 2021672A). 48 female nude mice (BALB/c-nu, 5 weeks, 15–18 g, purchased from Beijing HFK Bio-Technology Co., LTD) were acclimatized for one week in an SPF-grade animal facility (ventilated, 20–25 °C, 50–60% humidity). […] When the tumor volume reached approximately 100 mm^3 (V = L × W^2/2), the mice were randomly divided into six groups (n = 8 per group): (1) Control group (normal saline); (2) 25 mg/kg SKLB-D18-treated group; (3) 50 mg/kg SKLB-D18-treated group; (4) 50 mg/kg BVD-523-treated group; (5) 50 mg/kg XMD8-92-treated group; (6) BVD-523 (50 mg/kg) and XMD8-92 (50 mg/kg) combined treatment group. Drugs were freshly prepared with 5% DMSO, 10% Solutol HS-15, and 85% normal saline on the day of administration. Intragastric administration occurred once daily at the same time for 16 consecutive days. And the body weight and tumor volume of mice were measured every three days. After the administration period, all nude mice were euthanized by cervical dislocation the next day. Tumors and vital organs (heart, liver, spleen, lung, kidney) were dissected, and tumors were weighed, then immediately fixed in 4% paraformaldehyde or stored in −80 °C.

MEK1/2 and MEK5 = assay: Immunoblotting of upstream MEK activity; format: cell-based; settings: up to 5 μM, 24 h
Protocol: Then, the cells were washed twice with PBS and stimulated with cell lysis buffer. After 13,000 rpm centrifugation for 20 min, an enhanced bicinchoninic acid (BCA) protein assay kit was (Beyotime Biotechnology, Jiangsu, China) used to quantify the protein level of the supernatural. […] Furthermore, membranes were blocked with 5% skim milk. The membranes were incubated by the corresponding primary antibodies. After being washed twice with TBST solution, the membranes were incubated with horseradish peroxidase (HRP)-conjugated secondary antibodies and visualized by employing ECL ([…]) as the HRP substrate.

ERK2 = ERK2 (Homo sapiens, UniProt P28482); assay: ADP-Glo kinase assay; format: biochemical
ERK2, sequence (P28482 whole entry, the tested form may be a part): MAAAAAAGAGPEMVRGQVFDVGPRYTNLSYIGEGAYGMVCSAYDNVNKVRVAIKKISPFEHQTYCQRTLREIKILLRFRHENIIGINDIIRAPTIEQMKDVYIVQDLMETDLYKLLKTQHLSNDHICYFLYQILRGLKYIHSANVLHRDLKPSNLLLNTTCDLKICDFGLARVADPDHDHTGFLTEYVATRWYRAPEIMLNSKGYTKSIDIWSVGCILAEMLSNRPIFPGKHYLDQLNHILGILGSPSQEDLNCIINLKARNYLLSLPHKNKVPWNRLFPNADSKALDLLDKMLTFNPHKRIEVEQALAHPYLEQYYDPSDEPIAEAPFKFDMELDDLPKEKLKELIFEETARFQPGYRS
Protocol: (§1) The full-length human ERK1 or ERK2 with His-tag was cloned into a pET28a vector. hERK1/2 were expressed in Escherichia coli BL21(DE3), and then were purified using sequential Ni-NTA and Superdex 200 column steps. The SEC purified sample was then concentrated to 10 mg/ml and stored at −80 °C with buffer containing 20 mM HEPES pH 7.5, 150 mM NaCl. ERK5 (residues 48–395) containing His and GST tags was cloned into the pFastBac vector, and the recombinant plasmid was extracted. The recombinant plasmid was transformed into the DH10bac strain, and monoclonal was selected for culture. The recombinant Bacmid was then extracted according to the instructions of the Baculovirus Shuttle Vector Bacmid Mini Preparation Kit (Beyotime) and validated by PCR. 1 × 10^6/well Sf9 cells were counted for transfection and then amplified to obtain P3 ERK5 recombinant baculovirus. It was added to 2 × 10^6/mL Sf9 cells and incubated at 27 °C for 72 h on a shaker to express ERK5. Cells were lysed and supernatant was collected on a Ni-NTA for purification, and a 250 mM imidazole eluate was collected. Next, digestion by TEV protease was performed overnight while dialysis was performed in approximately 1000 mL of imidazole-free buffer. The digested ERK5 protein was sequentially purified on the Ni-NTA and GST-tag Purification Resin, followed by size exclusion chromatography on a Superdex 75 column. ERK5 protein was collected and concentrated to 12 mg/ml and stored at −80 °C in buffer containing 50 mM HEPES pH 8.0, 200 mM NaCl, 10% (v/v) glycerol.
(§2) ERK1/2/5 kinase activity assay was conducted using ADP-Glo™ Kinase Assay. 2× ATP solution and 2× kinase & Metal solution were prepared using assay buffer were prepared using assay buffer containing 50 mM Hepes pH 7.5, 10 mM MgCl2; 0.01% Brij35, 1 mM EGTA, 2 mM DTT. Transfer 40 nL compounds to 384 assay plate. Add 2 μL of 2× kinase & Metal solution were mixed and incubated in a 384-assay plate for 10 min at 25 °C. 2 μL of 2×ATP solution was added and incubated at 25 °C for 60 min. And then, each well was supplemented with 4 µL of ADP-Glo^TM reagent and incubated at 25 °C for 40 min. Subsequently, 8 µL of Kinase Detection Reagent was added and incubated at 25 °C for 40 min. Finally, the luminescence signals were recorded. The IC50 values were calculated using GraphPad Prism 9.5 software.

ERK1 = ERK1 (Homo sapiens, UniProt P27361); assay: ADP-Glo kinase assay; format: biochemical
ERK1, sequence (P27361 whole entry): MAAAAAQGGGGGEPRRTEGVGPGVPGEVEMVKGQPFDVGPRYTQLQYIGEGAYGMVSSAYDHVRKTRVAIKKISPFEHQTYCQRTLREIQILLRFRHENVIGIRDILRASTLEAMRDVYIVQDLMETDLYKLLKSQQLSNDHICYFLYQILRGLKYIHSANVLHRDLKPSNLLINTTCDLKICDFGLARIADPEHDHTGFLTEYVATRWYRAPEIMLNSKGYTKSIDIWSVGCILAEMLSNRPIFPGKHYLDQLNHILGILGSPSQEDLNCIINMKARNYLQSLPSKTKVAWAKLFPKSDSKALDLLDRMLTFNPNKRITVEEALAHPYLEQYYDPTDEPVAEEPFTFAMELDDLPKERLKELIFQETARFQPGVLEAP
Protocol: as §1, §2

ERK5 = ERK5 (Homo sapiens, UniProt Q13164); assay: ADP-Glo kinase assay; format: biochemical
ERK5, sequence (Q13164 whole entry): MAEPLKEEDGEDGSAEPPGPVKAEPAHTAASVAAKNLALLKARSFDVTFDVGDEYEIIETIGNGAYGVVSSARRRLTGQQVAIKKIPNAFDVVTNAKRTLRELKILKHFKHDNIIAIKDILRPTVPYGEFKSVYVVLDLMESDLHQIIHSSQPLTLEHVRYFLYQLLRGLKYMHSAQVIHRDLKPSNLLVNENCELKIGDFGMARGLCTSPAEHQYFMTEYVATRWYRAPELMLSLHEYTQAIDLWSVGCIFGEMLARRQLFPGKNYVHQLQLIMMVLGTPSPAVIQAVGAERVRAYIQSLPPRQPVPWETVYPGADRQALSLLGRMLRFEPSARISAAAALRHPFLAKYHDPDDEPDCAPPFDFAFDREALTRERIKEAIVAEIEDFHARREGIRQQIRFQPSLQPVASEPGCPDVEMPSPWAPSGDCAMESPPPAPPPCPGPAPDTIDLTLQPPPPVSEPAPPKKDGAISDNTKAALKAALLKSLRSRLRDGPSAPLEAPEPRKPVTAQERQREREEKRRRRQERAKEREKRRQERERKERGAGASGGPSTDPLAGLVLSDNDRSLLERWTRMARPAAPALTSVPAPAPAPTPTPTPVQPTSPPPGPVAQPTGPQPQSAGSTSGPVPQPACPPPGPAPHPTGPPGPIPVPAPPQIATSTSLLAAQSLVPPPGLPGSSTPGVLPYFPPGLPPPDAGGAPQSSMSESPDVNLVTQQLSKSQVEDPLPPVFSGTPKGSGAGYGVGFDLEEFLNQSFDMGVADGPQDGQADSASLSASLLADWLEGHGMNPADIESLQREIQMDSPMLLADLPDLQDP
Protocol: as §1, §2

MDA-MB-436 cells = assay: MTT cell viability assay; format: cell-based; settings: Homo sapiens, 72 h
Protocol: (§3) MDA-MB-468 and MDA-MB-436 cells were cultured in Leibovitz’s L-15 medium supplemented with 10% fetal bovine serum. […] All of the cells were cultured at 37 °C in a humidified atmosphere containing 5% CO2.
(§4) Cancer cells were seeded in a density in 96-well plates (2 × 10^3 cells per well). After incubation for 24 h, cancer cells were treated with compounds (0–20 μM) for 72 h.

MDA-MB-468 cells = assay: MTT cell viability assay; format: cell-based
Protocol: as §3, §4

BT549 cells = assay: MTT cell viability assay; format: cell-based; settings: Homo sapiens, BT-549, 72 h
Protocol: as §3, §4

MDA-MB-231 cells = assay: MTT cell viability assay; format: cell-based
Protocol: as §3, §4

CN(C)Cc1cccc(Nc2ncc(Cl)c(-c3csc(C(=O)NN4CCOCC4)c3)n2)c1 [SKLB-D18, 4-(5-chloro-2-((3-((dimethylamino)methyl)phenyl)amino)pyrimidin-4-yl)-N-morpholinothiophene-2-carboxamide]
tumor inhibition rate (MDA-MB-231 xenograft): 79.88%
changes in the activity of upstream MEK1/2 and MEK5 (MEK1/2 and MEK5): did not cause any changes
IC50 (ERK2; ADP-Glo): 0.0401 ± 0.00095 µM
inhibition at 0.5 µM (ERK2; read-out: Enzyme inhibitory activity (500 nM, %) ERK2): 93.2 ± 1.45%
IC50 (ERK1; ADP-Glo): 0.0387 ± 0.00062 µM
inhibition at 0.5 µM (ERK1; read-out: Enzyme inhibitory activity (500 nM, %) ERK1): 95.62 ± 0.84%
IC50 (ERK5; ADP-Glo): 0.0597 ± 0.00121 µM
inhibition at 0.5 µM (ERK5; read-out: Enzyme inhibitory activity (500 nM, %) ERK5): 93.1 ± 1.03%
IC50 (MDA-MB-436 cells): 2.31 ± 0.29 µM
Anti-proliferative activity (10 μM, %) MDA-MB-468 (MDA-MB-468 cells; 10 μM): 92.18 ± 0.93%
IC50 (MDA-MB-468 cells; Homo sapiens, MDA-MB-468, MTT, 72 h): 1.05 ± 0.13 µM
IC50 (BT549 cells): 3.21 ± 0.34 µM
Anti-proliferative activity (10 μM, %) MDA-MB-231 (MDA-MB-231 cells; 10 μM): 93.44 ± 1.21%
IC50 (MDA-MB-231 cells; Homo sapiens, MDA-MB-231, read-out: IC50 MDA-MB-231, MTT, 72 h): 0.93 ± 0.11 µM
